From patent US8440710B2, “HSL inhibitors useful in the treatment of diabetes” (Hoffmann-La Roche Inc., priority 2009, dated 2013) come the findings set out here.

For this experiment, the target named is T1, human HSL (Homo sapiens, UniProt Q05469).
T1 construct: generate a full length human HSL ORF with a 3′-His6 tag; made in house; host or cells: High 5 insect cells (baculovirus, pFast-BAC)
T1 sequence (Q05469 1-1076): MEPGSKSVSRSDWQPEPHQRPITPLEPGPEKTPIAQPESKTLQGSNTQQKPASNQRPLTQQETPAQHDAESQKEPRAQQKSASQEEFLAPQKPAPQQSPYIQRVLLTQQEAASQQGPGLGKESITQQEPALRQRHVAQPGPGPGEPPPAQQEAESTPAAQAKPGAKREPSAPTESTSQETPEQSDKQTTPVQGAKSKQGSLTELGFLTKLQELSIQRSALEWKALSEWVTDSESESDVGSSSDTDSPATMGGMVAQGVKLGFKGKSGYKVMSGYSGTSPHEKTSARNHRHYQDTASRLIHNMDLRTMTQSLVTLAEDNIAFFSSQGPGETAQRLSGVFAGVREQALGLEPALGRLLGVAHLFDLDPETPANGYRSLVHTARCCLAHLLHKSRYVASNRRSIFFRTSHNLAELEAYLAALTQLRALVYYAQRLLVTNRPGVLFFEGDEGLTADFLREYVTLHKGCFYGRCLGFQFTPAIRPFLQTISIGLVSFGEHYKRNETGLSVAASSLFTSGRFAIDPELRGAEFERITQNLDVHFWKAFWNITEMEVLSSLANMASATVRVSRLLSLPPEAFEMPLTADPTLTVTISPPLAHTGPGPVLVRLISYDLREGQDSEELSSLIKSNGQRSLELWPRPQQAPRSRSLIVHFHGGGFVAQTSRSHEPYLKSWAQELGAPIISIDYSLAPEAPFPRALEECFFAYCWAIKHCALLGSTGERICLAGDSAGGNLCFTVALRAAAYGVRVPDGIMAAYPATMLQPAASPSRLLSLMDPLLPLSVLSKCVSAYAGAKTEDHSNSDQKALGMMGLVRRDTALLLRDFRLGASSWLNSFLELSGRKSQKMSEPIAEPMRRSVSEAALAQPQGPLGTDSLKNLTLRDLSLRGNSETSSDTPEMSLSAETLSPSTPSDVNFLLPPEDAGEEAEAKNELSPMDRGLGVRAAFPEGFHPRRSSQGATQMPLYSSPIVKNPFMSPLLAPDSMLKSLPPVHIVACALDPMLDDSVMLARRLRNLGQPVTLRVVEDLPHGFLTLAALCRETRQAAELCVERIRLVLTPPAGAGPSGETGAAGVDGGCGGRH
As to the kind of experiment: Human Hormone-Sensitive Lipase (HSL) enzyme inhibition assay (colorimetric, DMPT substrate). It is filed as biochemical. The note with it: human full length HSL-His6, 2,3-dimercapto-1-propanol tributyrate substrate, 37° C. 20 minutes, absorbance at 405 nm; read-out: HSL hum IC50. Put shortly:
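Full-length human HSL with C-terminal His6, expressed in baculovirus-infected High 5 cells and Ni-NTA purified, was added (15 ug/ml stock) to 1.5 mM DMPT in 100 mM MOPS pH 7.2, 0.2 mg/ml fatty acid-free BSA containing compound. After 20 min at 37 °C, DTNB with SDS/Triton X-100 was added; A405 read after 15 min at RT.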
As usually defined, the IC50 is the concentration at which inhibition is half-maximal. `CC(Oc1ccc(N2CC[C@]3(CC[C@@](O)(C4CC4)CC3)C2=O)cc1)C(F)(F)F` (stereo partly drawn) [Example 181, (5α,8α)-8-Cyclopropyl-8-hydroxy-2-[4-(2,2,2-trifluoro-1-methyl-ethoxy)-phenyl]-2-aza-spiro[4.5]decan-1-one]: the IC50 was 20 nM.

Turning to `CC(C)Oc1ccc(N2CC[C@]3(CC[C@@](O)(c4cnn[nH]4)CC3)C2=O)cc1` [Example 374, (5α,8α)-8-hydroxy-2-(4-isopropoxyphenyl)-8-(1H-1,2,3-triazol-4-yl)-2-azaspiro[4.5]decan-1-one], the IC50 was determined as 400 nM.

For `COCC#C[C@]1(O)CC[C@]2(CCN(c3ccc(CC(F)(F)F)cc3)C2=O)CC1` [Example 92, (5α,8α)-8-Hydroxy-8-(3-methoxy-prop-1-ynyl)-2-[4-(2,2,2-trifluoro-ethyl)-phenyl]-2-aza-spiro[4.5]decan-1-one], the IC50 was 30 nM.

Take `NC(=O)O[C@H]1CC[C@@]2(CCN(c3ccc(OC(F)(F)F)cc3)C2=O)CC1` [Example 30, Carbamic acid [(5α,8β)-1-oxo-2-(4-trifluoromethoxy-phenyl)-2-aza-spiro[4.5]dec-8-yl]ester]: the IC50 was determined as 250 nM.

As to `O=C1N(c2ccc(OCC(F)(F)F)cc2)CC[C@]12CC[C@@](O)(COCC1CC1)CC2` [Example 257, (5α,8α)-8-[(Cyclopropylmethoxy)methyl]-8-hydroxy-2-[4-(2,2,2-trifluoro-ethoxy)-phenyl]-2-aza-spiro[4.5]decan-1-one], the IC50 is 10 nM.

For the compound `CC(C)c1ccc(N2CC[C@]3(CC[C@H](O)CC3)C2=O)cc1` [Example 38, (5α,8α)-8-Hydroxy-2-(4-isopropyl-phenyl)-2-aza-spiro[4.5]decan-1-one], the IC50 is 240 nM.

With `CCOC[C@]1(O)CC[C@]2(CCN(c3ccc(C(C)(C)C)cc3)C2=O)CC1` [Example 348, (5α,8α)-2-(4-tert-Butyl-phenyl)-8-ethoxymethyl-8-hydroxy-2-aza-spiro[4.5]decan-1-one], the IC50 was 10 nM.

As to `CC(C)(C)S(=O)(=O)C[C@]1(O)CC[C@]2(CCN(c3ccc(OCC(F)(F)F)cc3)C2=O)CC1` [Example 322, (5α,8α)-8-Hydroxy-8-(2-methyl-propane-2-sulfonylmethyl)-2-[4-(2,2,2-trifluoro-ethoxy)-phenyl]-2-aza-spiro[4.5]decan-1-one], the IC50 amounted to 20 nM.

On to `CC(C)Oc1ccc(N2CC[C@]3(CC[C@@](O)(c4ccsc4)CC3)C2=O)cc1` [Example 211, (5α,8α)-8-hydroxy-2-(4-isopropoxyphenyl)-8-(thiophen-3-yl)-2-aza-spiro[4.5]decan-1-one], for which the IC50 was 10 nM.

On to `COCC#C[C@]1(O)CC[C@]2(CCN(c3ccc(OC(F)(F)F)cc3)C2=O)CC1` [Example 71, (5α,8α)-8-Hydroxy-8-(3-methoxy-prop-1-ynyl)-2-(4-trifluoromethoxy-phenyl)-2-aza-spiro[4.5]decan-1-one], for which the IC50 worked out at 40 nM.

As to `O=C1N(c2ccc(OC(F)(F)F)cc2)CC[C@]12CC[C@@H](OCc1ccccc1)CC2` [Example 9, (5α,8β)-8-Benzyloxy-2-(4-trifluoromethoxy-phenyl)-2-aza-spiro[4.5]decan-1-one], the IC50 was determined as 190 nM.

On to `CC(C)[C@]1(O)CC[C@@]2(CCN(c3ccc(O[C@@H](C)C(F)(F)F)nc3)C2=O)CC1` [Example 149, (5α,8β)-8-Hydroxy-8-isopropyl-2-[6-((S)-2,2,2-trifluoro-1-methyl-ethoxy)pyridin-3-yl]-2-aza-spiro[4.5]decan-1-one], for which the half-maximal inhibitory concentration (IC50) amounted to 1650 nM.

As to `O=C1N(c2ccc(OCC(F)(F)F)cc2)CC[C@]12CC[C@@](O)(COc1ccc(F)cc1)CC2` [Example 263, (5α,8α)-8-(4-Fluoro-phenoxymethyl)-8-hydroxy-2-[4-(2,2,2-trifluoro-ethoxy)-phenyl]-2-aza-spiro[4.5]decan-1-one], the IC50 is 20 nM.

Consider `CCCNC(=O)O[C@H]1CC[C@]2(CCN(c3ccc(CC)cc3)C2=O)CC1` [Example 44, Propyl-carbamic acid [(5α,8α)-2-(4-ethyl-phenyl)-1-oxo-2-aza-spiro[4.5]dec-8-yl]ester], for which the IC50 stood at 1480 nM.

Take `CCC[C@]1(O)CC[C@]2(CCN(c3ccc(OC(C)C(F)(F)F)cc3)C2=O)CC1` (stereo partly drawn) [Example 164, (5α,8α)-8-Hydroxy-8-propyl-2-[4-(2,2,2-trifluoro-1-methyl-ethoxy)-phenyl]-2-aza-spiro[4.5]decan-1-one]: the IC50 came out at 20 nM.

With `C[C@@H](Oc1ccc(N2CC[C@]3(CC[C@@](O)(CO)CC3)C2=O)cc1)C(F)(F)F` [Example 145, (5α,8α)-8-Hydroxy-8-(hydroxymethyl)-2-[4-((R)-2,2,2-trifluoro-1-methyl-ethoxy)-phenyl]-2-aza-spiro[4.5]decan-1-one], the IC50 is 390 nM.

In the case of `CCC[C@]1(O)CC[C@]2(CCN(c3ccc(C(C)C)cc3)C2=O)CC1` [Example 204, (5α,8α)-8-hydroxy-2-(4-isopropylphenyl)-8-propyl-2-aza-spiro[4.5]decan-1-one], the IC50 was found to be 20 nM.

With `CC(C)[C@]1(O)CC[C@@]2(CCN(c3ccc(OCC(F)(F)F)nc3)C2=O)CC1` [Example 109, (5α,8β)-8-Hydroxy-8-isopropyl-2-(6-(2,2,2-trifluoroethoxy)pyridin-3-yl)-2-aza-spiro[4.5]decan-1-one], the IC50 is 2220 nM.

For `CCOC[C@]1(O)CC[C@]2(CCN(c3ccc(O[C@H](C)C(F)(F)F)nc3)C2=O)CC1` [Example 311, (5α,8α)-8-Ethoxymethyl-8-hydroxy-2-[6-((R)-2,2,2-trifluoro-1-methyl-ethoxy)-pyridin-3-yl]-2-aza-spiro[4.5]decan-1-one], the IC50 was 30 nM.

For `CCOC[C@]1(O)CC[C@]2(CCN(c3ccc(OCC(F)(F)F)nc3)C2=O)CC1` [Example 247, (5α,8α)-8-Ethoxymethyl-8-hydroxy-2-[6-(2,2,2-trifluoro-ethoxy)-pyridin-3-yl]-2-aza-spiro[4.5]decan-1-one], the IC50 was found to be 70 nM.

For `CC(C)Oc1ccc(N2CC[C@]3(CC[C@@](O)(C4CCCC4)CC3)C2=O)cc1` [Example 198, (5α,8α)-8-cyclopentyl-8-hydroxy-2-(4-isopropoxyphenyl)-2-aza-spiro[4.5]decan-1-one], the IC50 amounted to 10 nM.

Consider `CC[C@]1(O)CC[C@]2(CCN(c3ccc(CCC(F)(F)F)cc3)C2=O)CC1` [Example 169, (5α,8α)-8-Ethyl-8-hydroxy-2-[4-(3,3,3-trifluoro-propyl)-phenyl]-2-aza-spiro[4.5]decan-1-one], for which the IC50 is 50 nM.

Take `CC(C)C(O)[C@H]1CC[C@@]2(CCN(c3ccc(C(C)(C)C)cc3)C2=O)CC1` (stereo partly drawn) [Example 355, (5α,8β)-2-(4-tert-Butyl-phenyl)-8-(1-hydroxy-2-methyl-propyl)-2-aza-spiro[4.5]decan-1-one]: the IC50 was determined as 50 nM.

In the case of `O=C1N(c2ccc(OCC(F)(F)F)cc2)CC[C@]12CC[C@](O)(COCC(F)F)CC2` [Example 243, (5α,8β)-8-(2,2-Difluoro-ethoxymethyl)-8-hydroxy-2-[4-(2,2,2-trifluoro-ethoxy)-phenyl]-2-aza-spiro[4.5]decan-1-one], the IC50 was 300 nM.

Regarding `C[C@H](Oc1ccc(N2CC[C@]3(CC[C@](O)(COCC(F)(F)F)CC3)C2=O)cn1)C(F)(F)F` [Example 280, (5α,8β)-8-Hydroxy-8-(2,2,2-trifluoro-ethoxymethyl)-2-[6-((S)-2,2,2-trifluoro-1-methyl-ethoxy)-pyridin-3-yl]-2-aza-spiro[4.5]decan-1-one], the IC50 was determined as 980 nM.

For `CC(C)Oc1ccc(N2CC[C@]3(CC[C@@](O)(c4c(Br)nnn4C)CC3)C2=O)cc1` [Example 212, (5α,8α)-8-(5-Bromo-3-methyl-3H-[1,2,3]triazol-4-yl)-8-hydroxy-2-(4-isopropoxy-phenyl)-2-aza-spiro[4.5]decan-1-one], the IC50 worked out at 10 nM.

Turning to `CCC[C@]1(O)CC[C@]2(CCN(c3ccc(OCCC(F)(F)F)cc3)C2=O)CC1` [Example 99, (5α,8α)-8-Hydroxy-8-propyl-2-[4-(3,3,3-trifluoro-propoxy)-phenyl]-2-aza-spiro[4.5]decan-1-one], the IC50 was 30 nM.

Regarding `CC[C@]1(O)CC[C@]2(CCN(c3ccc(OC(C)C)cc3)C2=O)CC1` [Example 186, (5α,8α)-8-Ethyl-8-hydroxy-2-(4-isopropoxy-phenyl)-2-aza-spiro[4.5]decan-1-one], the IC50 was found to be 20 nM.
